For 14 compounds, pest or weed control and plant injury results are on record in US20130324412A1, “N-ALKOXYAMIDES OF 6-(SUBSTITUTED PHENYL)-4-AMINOPICOLINATES AND 2-(SUBSTITUTED PHENYL)-6-AMINO-4-PYRIMIDINECARBOXYLATES AND THEIR USE AS SELECTIVE HERBICIDES FOR CROPS” (DOW AGROSCIENCES LLC, priority 2009, published 2013).

Common to all, as to format: in vivo
In test [1] the test system is lambsquarters (Chenopodium album). In words: General postemergence herbicidal activity, lambsquarters. As to conditions: post-emergence, 336 h, read-out: CHEAL % Visual Injury; for pest or weed control at 17.5 g/ha: 17.5 g ai/ha; for pest or weed control at 35 g/ha: 35 g ai/ha. Here is the method:
(§1) Seeds or nutlets of the desired test plant species were planted in Sun Gro MetroMix® 360 planting mixture, which typically has a pH of 6.0 to 6.8 and an organic matter content of about 30 percent, in plastic pots with a surface area of 64 square centimeters (cm^2). When required to ensure good germination and healthy plants, a fungicide treatment and/or other chemical or physical treatment was applied. The plants were grown for 7-21 days (d) in a greenhouse with an approximate 15-hour (h) photoperiod which was maintained at about 23-29° C. during the day and 22-28° C. during the night. Nutrients and water were added on a regular basis and supplemental lighting was provided with overhead metal halide 1000-Watt lamps as necessary. The plants were employed for testing when they reached the first or second true leaf stage.
(§2) A weighed amount, determined by the highest rate to be tested, of each test compound was dissolved in 4 mL of a 97:3 volume per volume (v/v) mixture of acetone and dimethyl sulfoxide (DMSO) to obtain concentrated stock solutions. […] The concentrated stock solutions obtained were diluted with 20 mL of an aqueous mixture containing acetone, water, isopropyl alcohol, DMSO, Atplus 411F crop oil concentrate, and Triton X-155 surfactant in a 48.5:39:10:1.5:1.0:0.02 v/v ratio to obtain spray solutions containing the highest application rates. Additional application rates were obtained by serial dilution of 12 mL of the high rate solution into a solution containing 2 mL of 97:3 v/v mixture of acetone and DMSO and 10 mL of an aqueous mixture containing acetone, water, isopropyl alcohol, DMSO, Atplus 411F crop oil concentrate, and Triton X-155 surfactant in a 48.5:39:10:1.5:1.0:0.02 v/v ratio to obtain ½×, ¼×, ⅛× and 1/16× rates of the high rate. Compound requirements are based upon a 12 mL application volume at a rate of 187 liters per hectare (L/ha). Formulated compounds were applied to the plant material with an overhead Mandel track sprayer equipped with 8002E nozzles calibrated to deliver 187 L/ha over an application area of 0.503 square meters (m^2) at a spray height of 18 inches (43 cm) above the average plant canopy height. Control plants were sprayed in the same manner with the solvent blank.
(§3) The treated plants and control plants were placed in a greenhouse as described above and watered by sub-irrigation to prevent wash-off of the test compounds. After 14 d, the condition of the test plants as compared with that of the untreated plants was determined visually and scored on a scale of 0 to 100 percent where 0 corresponds to no injury and 100 corresponds to complete kill.

For another test, the system named is corn (Zea mays). As to the kind of experiment: General postemergence herbicidal activity, corn. As to conditions: post-emergence, 336 h, read-out: ZEAMX % Visual Injury; for plant injury at 17.5 g/ha: 17.5 g ai/ha; for plant injury at 35 g/ha: 35 g ai/ha. As to the method: as §1, §2, §3
Test [2] concerns wild buckwheat (Polygonum convululus). As to the kind of experiment: General postemergence herbicidal activity, wild buckwheat. As to conditions: post-emergence, 336 h, read-out: POLCO % Visual Injury; for pest or weed control at 35 g/ha: 35 g ai/ha. Here is the method: as §1, §2, §3
For test [3], the system named is velvetleaf (Abutilon theophrasti). As to the kind of experiment: General postemergence herbicidal activity, velvetleaf. As to conditions: post-emergence, 336 h, read-out: ABUTH % Visual Injury; for pest or weed control at 17.5 g/ha: 17.5 g ai/ha; for pest or weed control at 35 g/ha: 35 g ai/ha. Here is the method:
as §1, §2, §3

Setting [4] is: postemergence, after 14 d, 0 = no injury, 100 = complete kill.
The mark [5] stands for this setting: 8.75 g ai/ha, postemergence, after 14 d, 0 = no injury, 100 = complete kill.
The mark [6] stands for this setting: 70 g ai/ha, postemergence, after 14 d, 0 = no injury, 100 = complete kill.
[7] abbreviates: 140 g ai/ha, postemergence, after 14 d, 0 = no injury, 100 = complete kill.

Like-named read-outs stand apart in the source and are kept apart here.

In the case of `COc1c(Cl)ccc(-c2cc(N)c(Cl)c(C(=O)NO)n2)c1F` [Compound 57, 4-amino-3-chloro-6-(4-chloro-2-fluoro-3-methoxyphenyl)-N-hydroxypicolinamide], the pest or weed control at 17.5 g/ha in test [1] (setting [4]) is 95%; in test [2] (17.5 g ai/ha, postemergence, after 14 d, 0 = no injury, 100 = complete kill), 95%; in test [3] (setting [4]), 90%. In addition, in the test on corn (Zea mays) (setting [4]), the plant injury at 17.5 g/ha is 0%.

For the compound `COc1c(Cl)ccc(-c2cc(N)c(Cl)c(C(=O)NOCc3nnsc3Cl)n2)c1F` [Compound 47, 4-Amino-3-chloro-N-((5-chloro-1,2,3-thiadiazol-4-yl)methoxy)-6-(4-chloro-2-fluoro-3-methoxyphenyl)picolinamide], the pest or weed control at 17.5 g/ha in test [1] (setting [4]) and in test [3] (setting [4]) was 100% each time. In addition, in the test on corn (Zea mays) (setting [4]), the plant injury at 17.5 g/ha came to 35%.

For the compound `C=CCCONC(=O)c1nc(-c2ccc(Cl)c(OC)c2F)cc(N)c1Cl` [Compound 38, 4-Amino-N-(3-butenyloxy)-3-chloro-6-(4-chloro-2-fluoro-3-methoxyphenyl)picolinamide], the pest or weed control at 35 g/ha in test [1] (setting [4]), in test [2] (setting [4]) and in test [3] (setting [4]) was 100% in each case. Besides, the plant injury at 35 g/ha in the test on corn (Zea mays) (setting [4]) amounted to 35%.

`COc1c(Cl)ccc(-c2cc(N)c(Cl)c(C(=O)NOCC(=O)O)n2)c1F` [Compound 19, 2-(4-Amino-3-chloro-6-(4-chloro-2-fluoro-3-methoxyphenyl)picolinamidooxy)acetic acid]: the results for the pest or weed control at 35 g/ha in test [1] (setting [4]), in test [2] (setting [4]) and in test [3] (setting [4]) were 100%, 85% and 85%, respectively. In addition, the plant injury at 35 g/ha in the test on corn (Zea mays) (setting [4]) was 25%.

For the compound `COc1c(Cl)ccc(-c2cc(N)c(Cl)c(C(=O)N3CC=CCO3)n2)c1F` [Compound 52, (4-Amino-3-chloro-6-(4-chloro-2-fluoro-3-methoxyphenyl)pyridin-2-yl)(3,6-dihydro-2H-1,2-oxazin-2-yl)methanone], the results for the pest or weed control at 35 g/ha in test [1] (setting [4]), in test [2] (setting [4]) and in test [3] (setting [4]) were 90%, 100% and 100%, respectively. In addition, in the test with corn (Zea mays) (setting [4]), the plant injury at 35 g/ha was 20%.

For the compound `COc1c(Cl)ccc(-c2cc(N)c(Cl)c(C(=O)NOCc3ccccc3)n2)c1F` [Compound 5, 4-Amino-N-(benzyloxy)-3-chloro-6-(4-chloro-2-fluoro-3-methoxyphenyl)picolinamide], the pest or weed control at 35 g/ha in test [1] (setting [4]), in test [2] (setting [4]) and in test [3] (setting [4]) was 100% each time. The plant injury at 35 g/ha in the test on corn (Zea mays) (setting [4]) stood at 0%.

On to `C=CCONC(=O)c1nc(-c2ccc(Cl)c(OC)c2F)cc(N)c1Cl` [Compound 59, sodium 2-propenyloxy(4-amino-3-chloro-6-(4-chloro-2-fluoro-3-methoxyphenyl)picolinoyl)amide], for which the pest or weed control at 70 g/ha in test [1] is 95%; in test [2] it was 85%; in test [3], 100%. Also, the plant injury at 70 g/ha in the test with corn (Zea mays) is 10%.

Consider `C=CCONC(=O)c1nc(-c2ccc(Cl)c(OC)c2F)nc(N)c1Cl` [Compound 25, N-(2-Propenyloxy)-6-amino-5-chloro-2-(4-chloro-2-fluoro-3-methoxyphenyl)pyrimidine-4-carboxamide], for which the values for the pest or weed control at 8.75 g/ha in test [1] (setting [5]), in test [2] (setting [5]) and in test [3] (setting [5]) were 100%, 100% and 90%, respectively. Also, the plant injury at 8.75 g/ha with corn (Zea mays) (setting [5]) is 60%.

For the compound `COc1c(Cl)ccc(-c2cc(N)c(Cl)c(C(=O)NOc3ccccc3)n2)c1F` [Compound 20, 4-Amino-3-chloro-6-(4-chloro-2-fluoro-3-methoxyphenyl)-N-phenoxypicolinamide], the results for the pest or weed control at 70 g/ha in test [1] (setting [6]), in test [2] (setting [6]) and in test [3] (setting [6]) were 95%, 100% and 100%, respectively. Also, the plant injury at 70 g/ha in the test on corn (Zea mays) (setting [6]) worked out at 25%.

`COc1ccc(CONC(=O)c2nc(-c3ccc(Cl)c(OC)c3F)cc(N)c2Cl)cc1` [Compound 23, 4-Amino-3-chloro-6-(4-chloro-2-fluoro-3-methoxyphenyl)-N-(4-methoxy-benzyloxy)picolinamide]: the pest or weed control at 70 g/ha in test [1] (setting [6]), in test [2] (setting [6]) and in test [3] (setting [6]) was 100% each time. For the same compound, the plant injury at 70 g/ha in the test with corn (Zea mays) (setting [6]) came out at 15%.

Turning to `COc1c(Cl)ccc(-c2cc(N)c(Cl)c(C(=O)NOC3CCCCO3)n2)c1F` (centres unmarked) [Compound 12, 4-amino-3-chloro-6-(4-chloro-2-fluoro-3-methoxyphenyl)-N-(tetrahydro-2H-pyran-2-yloxy)picolinamide], the pest or weed control at 70 g/ha in test [1] (setting [6]), in test [2] (setting [6]) and in test [3] (setting [6]) was 100% each time. For the same compound, the plant injury at 70 g/ha with corn (Zea mays) (setting [6]) worked out at 0%.

As to `COc1c(Cl)ccc(-c2cc(N)c(Cl)c(C(=O)NOCc3ccoc3)n2)c1F` [Compound 43, 4-Amino-3-chloro-6-(4-chloro-2-fluoro-3-methoxyphenyl)-N-(furan-3-yl-methoxy)picolinamide], the pest or weed control at 140 g/ha in test [1] (setting [7]) was 100%; in test [2] (setting [7]) it was 100%; in test [3] (setting [7]), 95%. Also, the plant injury at 140 g/ha with corn (Zea mays) (setting [7]) stood at 30%.

In the case of `C=C(C)CONC(=O)c1nc(-c2ccc(Cl)c(OC)c2F)cc(N)c1Cl` [Compound 28, 4-Amino-3-chloro-6-(4-chloro-2-fluoro-3-methoxyphenyl)-N-(2-methyl-2-propenyl-oxy)picolinamide], the pest or weed control at 35 g/ha in test [1] (setting [4]) and in test [3] (setting [4]) was 100% throughout. In addition, the plant injury at 35 g/ha in the test on corn (Zea mays) (setting [4]) stood at 25%.

Regarding `COc1c(Cl)ccc(-c2cc(N)c(Cl)c(C(=O)NOCc3cncs3)n2)c1F` [Compound 36, 4-Amino-3-chloro-6-(4-chloro-2-fluoro-3-methoxyphenyl)-N-(thiazol-5-yl-methoxy)picolinamide], the pest or weed control at 35 g/ha in test [1] (setting [4]) and in test [3] (setting [4]) was 100% each time. In the test with corn (Zea mays) (setting [4]), the plant injury at 35 g/ha stood at 25%.
